These results are taken from patent US11583538B2, “Substituted pyrrolo[1,2-a]pyrazines and pyrrolo[1,2-a][1,4]diazepines as TREX1 inhibitors” (Venenum Biodesign, LLC, priority 2019, dated 2023).

The assay deals with human TREX1 (Homo sapiens (Human), UniProt Q9NSU2). The assay is described as follows: TREX1 Exonuclease Assay. It counts as biochemical. The procedure: For human TREX1, the nucleotide sequence of the gene construct was codon optimized for expression in the bacterial host. The sequence was incorporated into the pMAL-c5e vector (NEB) downstream of a solubility-promoting MBP (maltose binding protein) fusion partner. The fusion protein product was expressed in E. coli strain BL21 (DE3) (Millipore) and purified in a series of chromatographic steps. Initial steps were conducted using a dextrin sepharose affinity column followed by a Q-sepharose ion exchange column (both GE Healthcare). After the second column the MBP partner was removed by incubation with enterokinase (NEB). Further purification was carried out with the second application of a Q-sepharose column followed by a Superdex 75 (GE Healthcare) size exclusion column. Finally, a heparin sepharose column (GE Healthcare) was applied to remove contaminating nucleotides.
Chain of human TREX1 (Q9NSU2 whole entry, the tested form may be a part): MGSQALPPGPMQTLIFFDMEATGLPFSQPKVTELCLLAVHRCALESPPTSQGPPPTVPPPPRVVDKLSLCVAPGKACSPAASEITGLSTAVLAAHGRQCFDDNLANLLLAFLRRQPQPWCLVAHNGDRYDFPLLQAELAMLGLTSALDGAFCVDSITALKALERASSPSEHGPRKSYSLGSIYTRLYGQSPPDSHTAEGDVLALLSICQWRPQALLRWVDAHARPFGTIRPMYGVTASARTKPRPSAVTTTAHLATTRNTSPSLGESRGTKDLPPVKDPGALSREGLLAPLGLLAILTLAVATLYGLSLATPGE
To evaluate the effect of compounds on TREX1 activity, test compounds were serially diluted (11-point, 3-fold) from 10 mM stock solutions and delivered to 384-well low-volume assay plates in 80 nL DMSO using an acoustic dispenser. Next, 4 μL of human TREX1 (0.5 nM), or murine TREX1 (1 nM), diluted in assay buffer (20 mM Tris pH 7.5, 5 mM MgCl2, 100 μg/mL BSA, 0.002% Triton X-100, 2 mM DTT), was added to the assay plate. After incubating for 30 minutes, 4 μL of labeled DNA oligonucleotide (500 nM) in assay buffer was added to initiate TREX1 exonuclease activity. The reaction was allowed to proceed for 45 minutes at room temperature prior to the addition of 4 μL of 150 mM EDTA to halt TREX1 activity.
The term IC50 denotes the concentration that gives 50% inhibition. As for `N#CC[C@H](C(=O)N1CCOC[C@@H]1c1ccccc1)N1CCC(CCc2ccccc2)N2C[C@H](N)C[C@H]2C1=O` (stereo partly shown) [Example 68], the IC50 is 10 to 100 µM.

`N[C@@H]1C[C@H]2C(=O)N([C@H](CCC(=O)NO)C(=O)NCc3ccc(Cl)c(Cl)c3)CCC(CCc3ccccc3)N2C1` (stereo partly shown) [Example 116] showed an IC50 below 1 µM.

With `CC(C)C[C@H](C(=O)NCc1ccc(C(F)(F)F)c(F)c1)N1CCC(CCc2ccccc2)N2C[C@H](N)C[C@H]2C1=O` (stereo partly shown) [Example 56], the IC50 was below 1 µM.

`CCOC(=O)CC[C@H](C(=O)NCc1cc(Cl)c(Cl)cc1F)N1CCC(CCc2ccccc2)N2C[C@H](N)C[C@H]2C1=O` (stereo partly shown) [Example 94] came in with a 50% inhibitory concentration (IC50) below 1 µM.

On to `CONC(=O)CC[C@H](C(=O)NCc1ccc(Cl)c(Cl)c1)N1CCC(CCc2ccccc2)N2C[C@H](N)C[C@H]2C1=O` (stereo partly shown) [Example 117], for which the concentration for half-maximal inhibition (IC50) is below 1 µM.

Compound `COc1c(CNC(=O)[C@@H](CCC#N)N2CCC(CCc3ccccc3)N3C[C@H](N)C[C@H]3C2=O)ccc(Cl)c1Cl` (stereo partly shown) [Example 108] had a half-maximal inhibitory concentration (IC50) below 1 µM.

Turning to `N[C@@H]1C[C@H]2C(=O)N([C@@H]3CCCN(S(=O)(=O)c4ccccc4)C3)CCC(CCc3ccccc3)N2C1` (stereo partly shown) [Example 84], the IC50 lay in the range of 10 to 100 µM.

Consider `NC(=O)CC[C@H](C(=O)NCc1ccc(Cl)c(Cl)c1F)N1CCC(CCc2ccccc2)N2C[C@H](N)C[C@H]2C1=O` (stereo partly shown) [Example 107], for which the concentration for half-maximal inhibition (IC50) is below 1 µM.

On to `COc1c(CNC(=O)[C@@H](CCC(N)=O)N2CCC(CCc3ccccc3)N3C[C@H](N)C[C@H]3C2=O)ccc(Cl)c1Cl` (stereo partly shown) [Example 106], for which the IC50 is below 1 µM.

Regarding `CNC(=O)CC[C@H](C(=O)NCc1ccc(Cl)c(Cl)c1)N1CCC(CCc2ccccc2)N2C[C@H](N)C[C@H]2C1=O` (stereo partly shown) [Example 136], the half-inhibitory concentration (IC50) was below 1 µM.

`N[C@@H]1C[C@H]2C(=O)N([C@H]3CCN(Cc4ccc(Cl)c(Cl)c4)C3=O)CCC(CCc3ccccc3)N2C1` (stereo partly shown) [Example 33] showed a concentration for half-maximal inhibition (IC50) below 1 µM.

As to `COC(=O)CC[C@H](C(=O)NS(=O)(=O)c1ccc(Cl)c(Cl)c1)N1CCC(CCc2ccccc2)N2C[C@H](N)C[C@H]2C1=O` (stereo partly shown) [Example 101], the half-inhibitory concentration (IC50) is below 1 µM.

The compound `N[C@@H]1C[C@H]2C(=O)N([C@@H]3CCCN(C(=O)c4ccc(Cl)c(Cl)c4)C3)CCC(CCc3ccccc3)N2C1` (stereo partly shown) [Example 85] yielded an IC50 of 10 to 100 µM.

On to `CCOC(=O)CC[C@H](C(=O)NCc1cc(Cl)c(Cl)cc1OC)N1CCC(CCc2ccccc2)N2C[C@H](N)C[C@H]2C1=O` (stereo partly shown) [Example 103], for which the IC50 is below 1 µM.

In turn, `Cc1ccc(OCC2CCN([C@H](CCC(=O)O)C(=O)NCc3ccc(Cl)c(Cl)c3)C(=O)[C@@H]3C[C@@H](N)CN23)cc1` (stereo partly shown) [Example 73] came in with a half-inhibitory concentration (IC50) of 1 to 9.99 µM.

With `CC(C)C[C@H](C(=O)NCc1ccc(F)c(F)c1)N1CCC(CCc2ccccc2)N2C[C@H](N)C[C@H]2C1=O` (stereo partly shown) [Example 53], the half-inhibitory concentration (IC50) was below 1 µM.

For the compound `CC(C)C[C@H](C(=O)N(C)Cc1ccc(Cl)c(Cl)c1)N1CCC(CCc2ccccc2)N2C[C@H](N)C[C@H]2C1=O` (stereo partly shown) [Example 60], the IC50 was below 1 µM.

`CCOC(=O)CC[C@H](C(=O)N1CCCC[C@H]1c1ccc(Cl)c(Cl)c1)N1CCC(CCc2ccccc2)N2C[C@H](N)C[C@H]2C1=O` (stereo partly shown) [Example 97] registered a 50% inhibitory concentration (IC50) below 1 µM.

`N[C@@H]1C[C@H]2C(=O)N([C@H](CCC(=O)O)C(=O)NCc3ccc(Cl)c(Cl)c3)CCC(COc3cccc(Cl)c3)N2C1` (stereo partly shown) [Example 76]: the IC50 is below 1 µM.

Compound `N#CC[C@H](C(=O)NCc1ccc(Cl)cn1)N1CCC(CCc2ccccc2)N2C[C@H](N)C[C@H]2C1=O` (stereo partly drawn) [Example 63, (2R)-2-((8R,9aS)-8-amino-1-oxo-5-phenethylhexahydro-1H-pyrrolo[1,2-a][1,4]diazepin-2(3H)-yl)-N-((5-chloropyridin-2-yl)methyl)-3-cyanopropanamide.HCOOH] showed an IC50 below 1 µM.

Compound `N[C@@H]1C[C@H]2C(=O)N([C@H](CCC(=O)O)C(=O)NCc3ccc(Cl)c(Cl)c3)CCC(CCOc3ccccc3)N2C1` (stereo partly drawn) [Example 71, (4R)-4-((8R,9aS)-8-amino-1-oxo-5-(2-phenoxyethyl)hexahydro-1H-pyrrolo[1,2-a][1,4]diazepin-2(3H)-yl)-5-((3,4-dichlorobenzyl)amino)-5-oxopentanoic Acid] gave a half-inhibitory concentration (IC50) of 1 to 9.99 µM.

On to `N[C@@H]1C[C@H]2C(=O)N([C@H]3CCCN(S(=O)(=O)c4ccc(Cl)c(Cl)c4)C3)CCC(CCc3ccccc3)N2C1` (stereo partly shown) [Example 86], for which the IC50 lay in the range of 1 to 9.99 µM.

For `N#CC[C@H](C(=O)NCc1ccc(Cl)c(Cl)c1)N1CCC(CCc2ccccc2)N2C[C@H](N)C[C@H]2C1=O` (stereo partly shown) [Example 112], the concentration for half-maximal inhibition (IC50) is below 1 µM.

`N#CCC[C@H](C(=O)NCc1ccc(Cl)c(Cl)c1)N1CCC(COc2cccc(F)c2)N2C[C@H](N)C[C@H]2C1=O` (stereo partly shown) [Example 111] showed a half-inhibitory concentration (IC50) below 1 µM.

In the case of `CC(C)C[C@H](C(=O)NCc1ccc(Cl)c(C(F)(F)F)c1)N1CCC(CCc2ccccc2)N2C[C@H](N)C[C@H]2C1=O` (stereo partly shown) [Example 55], the IC50 was below 1 µM.

In turn, `N[C@@H]1C[C@H]2C(=O)N([C@H]3CCCN(C(=O)c4ccc(Cl)c(Cl)c4)C3)CCC(CCc3ccccc3)N2C1` (stereo partly shown) [Example 87] yielded a half-inhibitory concentration (IC50) of 10 to 100 µM.

In turn, `COC(=O)CC[C@H](C(=O)NCc1ccc(Cl)c(Cl)c1)N1CCC(CCc2ccccc2)N2C[C@H](N)C[C@H]2C1=O` (stereo partly drawn) [Example 104, (4R)-methyl 4-((8R,9aS)-8-amino-1-oxo-5-phenethylhexahydro-1H-pyrrolo[1,2-a][1,4]diazepin-2(3H)-yl)-5-((3,4-dichlorobenzyl)amino)-5-oxopentanoate] showed a concentration for half-maximal inhibition (IC50) below 1 µM.

As for `COc1ccc(CNC(=O)[C@@H](CC(C)C)N2CCC(CCc3ccccc3)N3C[C@H](N)C[C@H]3C2=O)cc1Cl` (stereo partly shown) [Example 58], the 50% inhibitory concentration (IC50) was below 1 µM.

`N[C@@H]1C[C@H]2C(=O)N([C@H](CCNS(=O)(=O)C(F)(F)F)C(=O)NCc3ccc(Cl)c(Cl)c3)CCC(CCc3ccccc3)N2C1` (stereo partly shown) [Example 142] yielded an IC50 below 1 µM.

Compound `NC(=O)C[C@H](C(=O)NCc1ccc(Cl)c(Cl)n1)N1CCC(CCc2ccccc2)N2C[C@H](N)C[C@H]2C1=O` (stereo partly shown) [Example 36] had a 50% inhibitory concentration (IC50) below 1 µM.

In turn, `N#CCC[C@H](C(=O)NCc1ccc(Cl)c(Cl)c1)N1CCC(COc2ccc(F)cc2)N2C[C@H](N)C[C@H]2C1=O` (stereo partly shown) [Example 110] had a half-maximal inhibitory concentration (IC50) below 1 µM.

`N[C@@H]1C[C@H]2C(=O)N([C@H](CCC(=O)O)C(=O)N3CCCC[C@H]3c3ccc(Cl)c(Cl)c3)CCC(CCc3ccccc3)N2C1` (stereo partly shown) [Example 26] yielded a half-inhibitory concentration (IC50) below 1 µM.

The compound `CCOC(=O)CC[C@H](C(=O)N1CCOC[C@H]1c1ccc(Cl)c(Cl)c1)N1CCC(CCc2ccccc2)N2C[C@H](N)C[C@H]2C1=O` (stereo partly shown) [Example 96] came in with an IC50 below 1 µM.

In turn, `CCOC(=O)CC[C@H](C(=O)NCc1cc(Cl)c(Cl)cn1)N1CCC(CCc2ccccc2)N2C[C@H](N)C[C@H]2C1=O` (stereo partly shown) [Example 99] had a concentration for half-maximal inhibition (IC50) below 1 µM.

As for `N[C@@H]1C[C@H]2C(=O)N([C@@H]3CCCN(Cc4ccc(Cl)c(Cl)c4)C3=O)CCC(CCc3ccccc3)N2C1` (stereo partly shown) [Example 35], the 50% inhibitory concentration (IC50) is below 1 µM.

`CC(C)C[C@H](C(=O)NS(=O)(=O)c1ccccc1)N1CCC(CCc2ccccc2)N2C[C@H](N)C[C@H]2C1=O` (stereo partly shown) [Example 61] came in with a half-inhibitory concentration (IC50) below 1 µM.

In turn, `CS(=O)(=O)NCC[C@H](C(=O)NCc1ccc(Cl)c(Cl)c1)N1CCC(CCc2ccccc2)N2C[C@H](N)C[C@H]2C1=O` (stereo partly shown) [Example 132] showed an IC50 below 1 µM.

Regarding `COC(=O)CC[C@H](C(=O)NCc1ccc(Cl)cn1)N1CCC(CCc2ccccc2)N2C[C@H](N)C[C@H]2C1=O` (stereo partly shown) [Example 100], the IC50 is below 1 µM.

The compound `CC(C)C[C@H](C(=O)NS(=O)(=O)c1ccc(Cl)c(Cl)c1)N1CCC(CCc2ccccc2)N2C[C@H](N)C[C@H]2C1=O` (stereo partly shown) [Example 62] displayed an IC50 of 1 to 9.99 µM.

`N[C@@H]1C[C@H]2C(=O)N([C@H](CCC(=O)O)C(=O)NCc3ccc(Cl)c(Cl)c3)CCC(COc3ccccc3Cl)N2C1` (stereo partly shown) [Example 78]: the IC50 was below 1 µM.
